According to patent publication US20190225650A1, “PEPTIDOMIMETIC MACROCYCLES AND USE THEREOF IN REGULATING HIF1ALPHA” (AILERON THERAPEUTICS, INC., priority 2013, published 2019):
Bridge positions count the residues as written; N and C are the ends. Square brackets hold non-standard residues; d marks the D form. Peptide text beside a SMILES is read from it. S5 = C=CCCC[C@](C)(N)C(=O)O; Nle = CCCC[C@H](N)C(=O)O

Molecular target: T1, flag-tagged HIF1α (AA 786-826) / His6-tagged p300 (AA 323-423) complex (Homo sapiens, UniProt Q09472)
T1 construct: His6-tagged p300 (AA 323-423); made in house; host or cells: E. coli (pETDuet vector)
Assay: HIF1α p300 displacement assay (TR FRET, +CHAPS)
Assay type: binding
Settings: read-out: IC50 (nM) (HIF1α_p300 Displacement + CHAPS)
Procedure: The ability of peptides to displace HIF1α c-terminal trans-activation domain from p300-CH was measured by a TR FRET assay. A complex of flag-tagged HIF1α (AA 786-826) and His6-tagged p300 (AA 323-423) was co-expressed using pETDuet vector (EMDMillipore, Bellrica Mass.) and purified from E. coli in the presence of 0.1 mM ZnSO4. The complex was diluted to 300 nM final in complete assay media and competitor peptides were added. The complete assay media contained 150 mM NaCl (Sigma +S5150 or equivalent), 20 mM HEPES pH 7.4 (Boston Bioproducts, Ashland, Mass.; #BB-2076), 7.5 mM CHAPS (Thermo #28300 or equivalent), and 1 mM DTT. Protein and peptide were incubated at room temperature for 1 hour before the addition of anti-Flag-K and anti-6×HIS-D2 (CisBio, Bedford Mass.) HTRF reconstitution buffer (50 mM Phosphate pH 7, 0.8 Potassium Flouride, BSA 0.2%)^1 to a final concentration of 0.5 μM and 4 nM respectively. […] The reaction was read on a TECAN F500 plate reader with settings recommended by CisBio. The ratio of donor to acceptor fluorescence was calculated. The resulting data was analyzed with Graphpad Prism 5.0. IC50 values were calculated for both proteins using the One Site Fit-LogIC50 equation and presented in the column “IC50 (nM) (HIF1α_p300 Displacement+CHAPS)” of Table 6. ^1 Cisbio USA, Bedford, Mass.; 61HISDLB (lot 007A), 61FG2KLB (024A), HTRF Buffer (62RB3RDF)

`CCCC[C@H](NC(=O)[C@H](C)NC(=O)[C@@H](NC(=O)[C@@H](NC(=O)[C@H](CC(C)C)NC(=O)[C@]1(C)CCCC=CCCC[C@](C)(NC(=O)[C@H](CCC(=O)O)NC(=O)[C@H](CC(=O)O)NC(=O)[C@@H](NC(=O)[C@H](Cc2ccccc2)NC(C)=O)[C@@H](C)CC)C(=O)N[C@@H](C(C)C)C(=O)N[C@@H](CC(C)C)C(=O)N[C@@H](CCCC)C(=O)N1)C(C)C)[C@@H](C)CC)C(=O)N[C@@H](C)C(=O)N[C@@H](CC(C)C)C(=O)N[C@@H](CO)C(=O)N[C@@H](CO)C(=O)N[C@H](C(N)=O)[C@@H](C)CC` [SP-129] (Ac-FIDE[S5]VL[Nle][S5]LVIA[Nle]ALSSI-NH2; staple 5-9) showed an IC50 greater than 700 nM.
